The subject of this assay is hippocampal gene expression. In words: microarray hybridization of rat hippocampus mRNA (Affymetrix Rat Array). It counts as in vivo. Conditions: of 35,000 genes comprising the microarray. As to the method:
In view of the results with BDNF and TrkB, hippocampal gene expression changes in rats treated with and without 2-DG were assessed by hybridization using microarrays (Affymetrix Rat Array (35,000 genes represented), Affymetrix, Santa Clara, Calif.). Hybridizations were performed according to the manufacturer's instructions using mRNA isolated from rat hippocampus from rats following dietary restriction or treatment with drug (2-DG). […] Genes of interest in disease states detected in these experiments include but are not limited to snail (NM_005985), MDR3/MRP3 (GenBank Accession No. M23234), MTA1 (NM_004689), DCC (NM_005215), Netrin (U75586), and β-catenin (X87838)(metastasis); BDNF (NM_170731) and TrkB (NM_006180) (neurological disorders) and atrial natriuretic peptide (ANP; NM_000907)(cardiac hypertrophy/myocardial infarction).

Molecules are shown by their SMILES.

`O=CC[C@@H](O)[C@H](O)[C@H](O)CO` [2-DG, 2-deoxy-D-glucose]: the “number of genes down-regulated by drug treatment” value is reported as 349 and the “number of genes transcriptionally upregulated by drug treatment” value amounted to 241.

The record behind these values is patent US7557085B2, “Metabolic-based methods for modulating gene expression” (Wisconsin Alumni Research Foundation, priority 2005, dated 2009).
